Reference: article PMC4718634, “Murine GPRC6A Mediates Cellular Responses to L-Amino Acids, but Not Osteocalcin Variants” (PLoS ONE, 2016)
Where two headings read alike, the source gives them in different places.

Columns and labels:
GLUTag cells = conditions: endogenous; ref [17] (supplement list); cited from earlier work
Source text: (§1) Supplement pone.0146846.s004.docx, table 1 | column: Functional assay

mGPRC6A (mouse GPRC6A) = target: T1, mGPRC6A (mouse GPRC6A) (Mus musculus, UniProt Q8K4Z6); test: Inositol phosphate (IP-One HTRF) accumulation, FlpIn-TREx-HEK293-mGPRC6A cells; assay type: cell-based; conditions: for EC50: 30 min, HTRF, HBSS pH 7.2, mean ± SEM of at least three independent experiments, read-out: pEC50, inositol phosphate accumulation (converted)
T1 sequence (Q8K4Z6 21-928): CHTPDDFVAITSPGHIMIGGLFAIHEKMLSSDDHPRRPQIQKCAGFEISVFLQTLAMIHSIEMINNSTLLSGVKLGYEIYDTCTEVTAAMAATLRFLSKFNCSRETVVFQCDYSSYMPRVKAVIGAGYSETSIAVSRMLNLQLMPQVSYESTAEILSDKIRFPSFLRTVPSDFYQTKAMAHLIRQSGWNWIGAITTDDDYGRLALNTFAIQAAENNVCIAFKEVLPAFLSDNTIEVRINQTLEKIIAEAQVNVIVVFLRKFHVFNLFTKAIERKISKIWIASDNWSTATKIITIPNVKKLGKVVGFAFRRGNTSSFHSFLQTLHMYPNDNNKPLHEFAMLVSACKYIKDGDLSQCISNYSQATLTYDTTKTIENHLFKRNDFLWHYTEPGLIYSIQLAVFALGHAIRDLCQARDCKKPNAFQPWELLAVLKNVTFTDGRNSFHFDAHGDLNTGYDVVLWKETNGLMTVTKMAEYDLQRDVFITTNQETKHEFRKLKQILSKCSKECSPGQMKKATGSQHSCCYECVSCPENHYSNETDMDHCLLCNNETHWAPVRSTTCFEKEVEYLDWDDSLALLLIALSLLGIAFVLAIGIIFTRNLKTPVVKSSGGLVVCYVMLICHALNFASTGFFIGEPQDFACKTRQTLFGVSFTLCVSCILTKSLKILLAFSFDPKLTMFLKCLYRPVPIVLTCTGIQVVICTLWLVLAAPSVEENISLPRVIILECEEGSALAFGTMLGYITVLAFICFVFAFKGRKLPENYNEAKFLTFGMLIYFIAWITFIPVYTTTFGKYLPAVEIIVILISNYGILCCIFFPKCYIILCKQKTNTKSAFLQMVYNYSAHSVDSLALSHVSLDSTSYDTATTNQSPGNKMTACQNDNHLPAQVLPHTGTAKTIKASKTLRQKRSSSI
Experimental: pcDNA 5/FRT/TO constructs were isogenically integrated into a FlpIn-TREx-HEK293 cell line (Life Technologies). FlpIn-TREx-HEK293-mGPRC6A and FlpIn-TREx-HEK293-hGPRC6A cells were then selected using 600 μg/ml hygromycin and 5 μg/ml blasticidin and grown in culture medium consisting of Dulbecco’s Modified Eagle Medium (DMEM), supplemented with 10% (v/v) foetal bovine serum (FBS) at 37°C in 5% CO2 and were sub-cultured in a 1:3 ratio every 3–4 days. Cells were cultured overnight in the presence of 1 μg/ml tetracycline to induce GPRC6A expression. […] 48 h after transfection, cells were selected using 3 μg/ml puromycin and grown as above.
Inositol phosphate (IPX) accumulation experiments were performed using the IP-One HTRF® assay kit (Cisbio, France). Briefly, 24h after transfection with G proteins (as above), 10^5 cells were seeded per well in PDL-coated, 96-well white plates and incubated overnight. Cells were then washed 2 x 2h at 37°C in HBSS buffer (pH 7.2) containing 20 mM HEPES, 3.5 mM NaHCO3, 1 mM CaCl2 and 0.1% (w/v) BSA. Test compounds were then prepared in the kit stimulation buffer containing 2 mM CaCl2; cells were then incubated with 70 μl of drugs for 30 min, after which 15 μl of both IP1-D2 and Ab-Cryp were added to the cells, followed by a 1 h incubation at RT. Plates were read using an Envision plate reader (Perkin Elmer), using an HTRF protocol. Results were calculated from the 665nm / 620nm HTRF ratio (Ratio = A665nm/A620nm x 10^4) and expressed as a percentage of the maximal response obtained.
Concentration-response data were analysed using a three or four parameter logistic function (Motulsky & Christopoulos, 2004) to generate estimates of agonist potency (LogEC50). Data for all HEK293 assays represent the mean ± SEM of at least three independent experiments (except cell impedance, n = 2). For GLP-1 release, the data represent mean ± SEM of three to five independent experiments (except for OCN, wash; n = 2). For insulin release assays, data represent the mean ± SEM of three independent experiments (except for islet studies; n = 2). Insulin release data were normalised to the response to vehicle in either low or high [glucose]. Statistical analysis for GLP-1 release data were performed by one-way ANOVA, followed by Sidak’s multiple comparisons test (treating wash / no wash datasets separately). Statistical analyses for insulin release data were performed by two-way ANOVA (with [glucose] and drug treatment as group variables), followed by Sidak’s multiple comparisons test. Where only high [glucose] groups were evaluated, statistical analysis was by one-way ANOVA followed by Sidak’s multiple comparisons test.

22RV1 = conditions: endogenous, cited from earlier work
Source text: as §1

22RV1 / PC-3 = conditions: endogenous; ref [9] (supplement list); cited from earlier work
Source text: as §1

MC3T3-E1 = conditions: endogenous; ref cell of this line empty; cited from earlier work
Source text: as §1

Unknown species GPRC6A = conditions: ref [11] (supplement list); cited from earlier work
Source text: as §1

TM3 Leydig cells = conditions: endogenous; ref [12] (supplement list); cited from earlier work
Source text: as §1

GPRC6A = conditions: ref [6] (supplement list); cited from earlier work
Source text: as §1

MA-10 Leyding cells = conditions: endogenous; ref [15] (supplement list); cited from earlier work
Source text: as §1

3T3-L1 adipocytes = conditions: endogenous; ref [16] (supplement list); cited from earlier work
Source text: as §1

NCCC[C@H](N)C(=O)O [L-ornithine]
GLP-1 secretion response (GLUTag cells): response
EC50 (mGPRC6A (mouse GPRC6A); co-expression of GαqG66D): 100 µM
EC50 (mGPRC6A (mouse GPRC6A); co-expression of wild-type Gαq): 1000 µM
potency of L-ornithine with GαqG66D compared to wild-type Gαq (mGPRC6A (mouse GPRC6A); inositol phosphate accumulation): ten-fold higher potency

OCN: osteoblast-derived peptide, osteocalcin; variant not specified at the place (YLYQWLGAPVPYPDPLEPRREVCELNPDCDELADHIGFQEAYRRFYGPV; UniProt P02818 52-100, looked up)
Chemotaxis (22RV1) response (22RV1; ref [9] (supplement list)): pERK1/2 – response to Ca^2+, ZnCl2, OCN, Arginine, Testosterone-BSA Proliferation – response to Ca^2+, OCN PSA, Runx2 expression – response to OCN, Arg, R1881 Chemotaxis (22RV1) – response to Ca^2+, OCN
Proliferation response (22RV1; ref [10] (supplement list)): pERK1/2 – response to Testosterone-BSA, Proliferation – response to Ca^2+, OCN, Testosterone-BSA
PSA, Runx2 expression response (22RV1 / PC-3): pERK1/2 – response to Ca^2+, ZnCl2, OCN, Arginine, Testosterone-BSA Proliferation – response to Ca^2+, OCN PSA, Runx2 expression – response to OCN, Arg, R1881 Chemotaxis (22RV1) – response to Ca^2+, OCN
Proliferation response (22RV1 / PC-3): pERK1/2 – response to Ca^2+, ZnCl2, OCN, Arginine, Testosterone-BSA Proliferation – response to Ca^2+, OCN PSA, Runx2 expression – response to OCN, Arg, R1881 Chemotaxis (22RV1) – response to Ca^2+, OCN
pERK1/2 response (22RV1 / PC-3): pERK1/2 – response to Ca^2+, ZnCl2, OCN, Arginine, Testosterone-BSA Proliferation – response to Ca^2+, OCN PSA, Runx2 expression – response to OCN, Arg, R1881 Chemotaxis (22RV1) – response to Ca^2+, OCN
SRE-reporter gene response (MC3T3-E1): SRE-reporter gene – response to OCN
pERK1/2 response (Unknown species GPRC6A): pERK1/2 - response to Ca^2+, L-Arg, OCN.
Ca2+i response (TM3 Leydig cells): negative
cAMP response (TM3 Leydig cells): response
pCREB response (TM3 Leydig cells): response
pERK1/2 response (TM3 Leydig cells): negative
SRE-reporter gene response (GPRC6A): pERK1/2 – response to Ca^2+, Mg^2+, Gd^3+, Al^3+, NPS R568 SRE-reporter gene – response to CaCl2, SrCl2, MgCl2, GdCl3 and OCN
Ca^2+i response (MA-10 Leyding cells): response
Release of 25-OH-Vit D or Testosterone (MA-10 Leyding cells): response
cAMP response (MA-10 Leyding cells): no response
Adiponectin, PPARγ expression response (3T3-L1 adipocytes): cAMP – response to OCN pERK1/2 – response to OCN pCREB – response to OCN Adiponectin, PPARγ expression – response to OCN
cAMP response (3T3-L1 adipocytes): cAMP – response to OCN pERK1/2 – response to OCN pCREB – response to OCN Adiponectin, PPARγ expression – response to OCN
pCREB response (3T3-L1 adipocytes): cAMP – response to OCN pERK1/2 – response to OCN pCREB – response to OCN Adiponectin, PPARγ expression – response to OCN
pERK1/2 response (3T3-L1 adipocytes): cAMP – response to OCN pERK1/2 – response to OCN pCREB – response to OCN Adiponectin, PPARγ expression – response to OCN
